Source: PMC4501006, “Preliminary Characterization and In Vivo Studies of Structurally Identical ^18F- and ^125I-Labeled Benzyloxybenzenes for PET/SPECT Imaging of β-Amyloid Plaques” (Scientific Reports, 2015)

How the values were obtained:
[1] = Partition coefficient determination (log D); type: physicochemical
Description: An ideal Aβ imaging probe would combine a high binding affinity to Aβ plaques and excellent pharmacokinetics with high initial brain uptake and rapid washout from normal brain regions. Thus, the partition coefficients of these four radiolabeled ligands were determined to estimate their ability to penetrate the BBB.

[2] = In vivo biodistribution in normal ICR mice; settings: i.v.
Description: Histograms of brain and intestine uptake were presented in Fig. 6 for comparison, while detailed data concerning the in vivo biodistribution in normal ICR mice were collected in Table S3 in Supplementary information. […] [^125I]7a and [^125I]12a were rapidly cleared from the normal brain, with only small amounts of radioactivity remaining at 60 min post-injection (0.55% ID/g for [^125I]7a and 0.37% ID/g for [^125I]12a). […] In addition, no significant deiodination was observed (less than 0.5% ID in the thyroid at 60 min).
As the specific activity of ^18F-labeled ligands (about 60 GBq/μmol) was slightly lower than that of corresponding no-carrier-added ^125I-labeled ligands (81 GBq/μmol), the impact of specific activity on pharmacokinetics was studied. In vivo biodistribution of radioactivity after injection of carrier-added [^125I]7a with equal specific activity to corresponding [^18F]7a (60 GBq/μmol) was conducted in normal ICR mice through the same procedure.
A structural model of an Aβ fiber (PDB ID: 2LMO) derived from solid state NMR was downloaded from the RCSB Protein Data Bank (www.rcsb.org/pdb). Geometric optimization was performed using Gaussian 09 at the B3LYP/6–31 G and 3-21G levels in the water phase. Molecular docking was performed using AutoDock4.0, and the docking results were graphed with VMD 1.9.1 software. SYBYL-X 1.1 software was used to predict the binding affinities with previously constructed 3D-QSAR models. All reagents for chemical synthesis were used as purchased without further purification. [^125I]NaI was purchased from PerkinElmer and ^18F^– was kindly provided by the Chinese PLA General Hospital. ^1H and ^13C NMR spectra were recorded on a Bruker Avance III NMR spectrometer (400 MHz for ^1H; 101 MHz for ^13C) in CDCl3 or DMSO-d6 solutions at room temperature. Mass spectra were acquired with a GCT CA127 Micronass UK instrument. X-ray crystallographic data of compound 12a were collected on a Bruker Smart APEX II diffractometer (Bruker Co., Germany) and deposited at the Cambridge Crystallographic Data Centre as supplementary publication (no. CCDC 1063679). HPLC analysis was performed on a Shimadzu SCL-20 AVP equipped with a Bioscan Flow Count 3200 NaI/PMT γ-radiation scintillation detector and a SPD-20A UV detector, λ = 254 nm. A Venusil MP C18 reverse phase column (Agela Technologies, 5 μm, 4.6 × 250 mm) was used for separations and purity determinations with a binary gradient system (acetonitrile: water = 80%: 20%) at a 1.0 mL/min flow rate. Fluorescent observation was performed on the Axio Observer Z1 inverted fluorescence microscope (Zeiss, Germany) equipped with a DAPI filter set (excitation, 405 nm). Post-mortem brain sections from an autopsy-confirmed AD subject and a control subject were acquired from the Chinese Brain Bank. Transgenic mice (APPswe/PSEN1, male) and wild-type mice (C57BL6, male) were purchased from the Institute of Laboratory Animal Science, Chinese Academy of Medical Sciences. Normal ICR mice (20–22 g, male) were used for in vivo biodistribution, dynamic PET/CT and SPECT/CT scans, and biostability experiments. All experiments on mice were performed in accordance with the guidelines approved by the animal care committee of Beijing Normal University and Xiamen University.

logD [1]: 3.88 ± 0.17 | brain2 min/brain60 min ratio [2]: 1.8 | Biodistribution of radioactivity, blood ([2]; 2 min): 5.99 ± 0.16 % injected dose per gram | Biodistribution of radioactivity, bone ([2]; 2 min): 2.53 ± 0.43 % injected dose per gram | Biodistribution of radioactivity, brain ([2]; 2 min): > 5 % injected dose per gram | Biodistribution of radioactivity, heart ([2]; 2 min): 9.32 ± 0.27 % injected dose per gram | Biodistribution of radioactivity, intestine ([2]; 2 min): 6.38 ± 1.04 % injected dose per organ | Biodistribution of radioactivity, kidney ([2]; 2 min): 12.70 ± 0.69 % injected dose per gram | Biodistribution of radioactivity, liver ([2]; 2 min): 17.83 ± 1.41 % injected dose per gram | Biodistribution of radioactivity, lung ([2]; 2 min): 9.34 ± 0.45 % injected dose per gram | Biodistribution of radioactivity, muscle ([2]; 2 min): 5.03 ± 0.63 % injected dose per gram | Biodistribution of radioactivity, pancreas ([2]; 2 min): 8.18 ± 0.79 % injected dose per gram | Biodistribution of radioactivity, spleen ([2]; 2 min): 5.92 ± 1.30 % injected dose per gram | Biodistribution of radioactivity, stomach ([2]; 2 min): 1.55 ± 0.11 % injected dose per organ | Biodistribution of radioactivity, brain ([2]; 2 min, listed as [18F]7a): 6.14 ± 0.52 % injected dose per gram | Biodistribution of radioactivity, blood ([2]; 10 min): 4.29 ± 0.14 % injected dose per gram | Biodistribution of radioactivity, bone ([2]; 10 min): 1.55 ± 0.50 % injected dose per gram | Biodistribution of radioactivity, brain ([2]; 10 min): 4.78 ± 0.11 % injected dose per gram | Biodistribution of radioactivity, heart ([2]; 10 min): 4.03 ± 0.34 % injected dose per gram | Biodistribution of radioactivity, intestine ([2]; 10 min): 5.38 ± 0.33 % injected dose per organ | Biodistribution of radioactivity, kidney ([2]; 10 min): 7.69 ± 1.15 % injected dose per gram | Biodistribution of radioactivity, liver ([2]; 10 min): 6.07 ± 0.27 % injected dose per gram | Biodistribution of radioactivity, lung ([2]; 10 min): 4.63 ± 0.35 % injected dose per gram | Biodistribution of radioactivity, muscle ([2]; 10 min): 3.46 ± 0.19 % injected dose per gram | Biodistribution of radioactivity, pancreas ([2]; 10 min): 3.96 ± 0.15 % injected dose per gram | Biodistribution of radioactivity, spleen ([2]; 10 min): 3.33 ± 0.20 % injected dose per gram | Biodistribution of radioactivity, stomach ([2]; 10 min): 1.24 ± 0.13 % injected dose per organ | Biodistribution of radioactivity, blood ([2]; 30 min): 4.36 ± 0.20 % injected dose per gram | Biodistribution of radioactivity, bone ([2]; 30 min): 2.70 ± 0.48 % injected dose per gram | Biodistribution of radioactivity, brain ([2]; 30 min): 3.85 ± 0.24 % injected dose per gram | Biodistribution of radioactivity, heart ([2]; 30 min): 4.20 ± 0.52 % injected dose per gram | Biodistribution of radioactivity, intestine ([2]; 30 min): 5.95 ± 0.89 % injected dose per organ | Biodistribution of radioactivity, kidney ([2]; 30 min): 6.12 ± 0.79 % injected dose per gram | Biodistribution of radioactivity, liver ([2]; 30 min): 4.31 ± 0.32 % injected dose per gram | Biodistribution of radioactivity, lung ([2]; 30 min): 4.21 ± 0.18 % injected dose per gram | Biodistribution of radioactivity, muscle ([2]; 30 min): 3.82 ± 0.40 % injected dose per gram | Biodistribution of radioactivity, pancreas ([2]; 30 min): 3.62 ± 0.30 % injected dose per gram | Biodistribution of radioactivity, spleen ([2]; 30 min): 3.38 ± 0.23 % injected dose per gram | Biodistribution of radioactivity, stomach ([2]; 30 min): 1.82 ± 0.48 % injected dose per organ | Biodistribution of radioactivity, blood ([2]; 60 min): 4.97 ± 0.12 % injected dose per gram | Biodistribution of radioactivity, bone ([2]; 60 min): 4.16 ± 0.59 % injected dose per gram | Biodistribution of radioactivity, brain ([2]; 60 min): 3.48 % injected dose per gram | Biodistribution of radioactivity, heart ([2]; 60 min): 4.26 ± 0.13 % injected dose per gram | Biodistribution of radioactivity, intestine ([2]; 60 min): 8.13 ± 1.01 % injected dose per organ | Biodistribution of radioactivity, kidney ([2]; 60 min): 4.77 ± 0.52 % injected dose per gram | Biodistribution of radioactivity, liver ([2]; 60 min): 3.84 ± 0.21 % injected dose per gram | Biodistribution of radioactivity, lung ([2]; 60 min): 4.32 ± 0.17 % injected dose per gram | Biodistribution of radioactivity, muscle ([2]; 60 min): 4.31 ± 0.38 % injected dose per gram | Biodistribution of radioactivity, pancreas ([2]; 60 min): 2.89 ± 0.37 % injected dose per gram | Biodistribution of radioactivity, spleen ([2]; 60 min): 3.28 ± 0.29 % injected dose per gram | Biodistribution of radioactivity, stomach ([2]; 60 min): 1.58 ± 0.18 % injected dose per organ | Biodistribution of radioactivity, brain ([2]; 60 min, listed as [18F]7a): 3.48 ± 0.12 % injected dose per gram
Structure (SMILES): [18F]CCOc1ccc(OCc2ccc(I)cc2)cc1 [[^18F]7a]
